The source of these data is patent US8598211B2, “Carboxamide compounds and their use as calpain inhibitors IV” (AbbVie Inc., priority 2009, dated 2013).

The term pKi denotes the Ki on a negative log10 scale, so that one unit is a factor of ten.

pKi: −log10 of the molar value.

One test has as its target T1, calpain-I (Homo sapiens, UniProt P07384).
T1 construct: calpain-I—isolated from human erythrocytes; purchased Calbiochem 208713; host or cells: human erythrocytes (natural source)
T1 sequence (P07384 1-714): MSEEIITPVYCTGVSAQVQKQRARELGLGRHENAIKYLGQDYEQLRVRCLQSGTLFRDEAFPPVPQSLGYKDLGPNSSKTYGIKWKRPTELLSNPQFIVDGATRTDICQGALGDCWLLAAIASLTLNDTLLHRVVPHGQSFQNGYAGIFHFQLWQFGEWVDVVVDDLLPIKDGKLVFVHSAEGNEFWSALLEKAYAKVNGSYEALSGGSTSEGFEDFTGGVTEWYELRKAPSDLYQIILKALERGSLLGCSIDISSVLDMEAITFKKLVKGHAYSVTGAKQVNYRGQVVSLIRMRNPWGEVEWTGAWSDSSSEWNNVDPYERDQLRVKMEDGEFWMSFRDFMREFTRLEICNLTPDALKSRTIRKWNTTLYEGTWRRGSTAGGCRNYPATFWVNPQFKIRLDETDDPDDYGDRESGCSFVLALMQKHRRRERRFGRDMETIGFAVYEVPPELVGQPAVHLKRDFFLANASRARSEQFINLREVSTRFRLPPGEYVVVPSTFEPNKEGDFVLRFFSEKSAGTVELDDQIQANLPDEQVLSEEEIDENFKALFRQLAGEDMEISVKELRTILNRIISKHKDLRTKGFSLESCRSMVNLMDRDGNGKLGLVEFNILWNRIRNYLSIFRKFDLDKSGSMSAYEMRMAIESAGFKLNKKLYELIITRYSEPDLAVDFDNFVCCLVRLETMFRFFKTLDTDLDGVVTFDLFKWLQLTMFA
T1 sequence (P04632 1-268 partner): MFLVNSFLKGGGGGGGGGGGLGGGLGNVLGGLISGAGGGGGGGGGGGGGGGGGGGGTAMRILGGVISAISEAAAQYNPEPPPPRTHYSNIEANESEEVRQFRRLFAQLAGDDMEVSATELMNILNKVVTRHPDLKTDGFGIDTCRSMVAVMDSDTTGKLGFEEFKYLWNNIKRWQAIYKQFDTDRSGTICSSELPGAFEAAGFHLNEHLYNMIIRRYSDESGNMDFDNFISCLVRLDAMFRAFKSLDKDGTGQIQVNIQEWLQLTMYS
Description: Calpain I kinetic fluorescence enzyme inhibition assay. To be noted: calpain-I from human erythrocytes, Suc-Leu-Tyr-AMC, pH 7.3; apparent Ki from IC50 by Cheng-Prussoff. Format: biochemical. As to the method: Testing for blockade of the corresponding enzymic activities was carried out by means of kinetic fluorescence assays (excitation 390 nm, emission 460 nm).
Apparent Ki values were calculated from the experimentally determined IC50 values by the Cheng-Prussoff relation assuming a reversible competitive enzyme inhibition.
20 nM calpain-I—isolated from human erythrocytes (Calbiochem #208713), 100 μM Suc-Leu-Tyr-AMC (Bachem #I-1355) as substrate in buffer with 62 mM imidazole, 0.3 mM CaCl2, 0.10% CHAPS, 0.05% BSA, 1 mM DTT at pH 7.3 and room temperature.
For `O=C(NC1CCC1)C(=O)C(Cc1ccccc1)NC(=O)c1cccnc1-n1ccc(-c2ccccc2)n1` (stereo not drawn) [Example 10, N-(4-(Cyclobutylamino)-3,4-dioxo-1-phenylbutan-2-yl)-2-(3-phenyl-1H-pyrazol-1-yl)nicotinamide], the pKi was 6.10 to 6.40.

For `CNC(=O)C(=O)C(Cc1ccccc1)NC(=O)c1cccnc1-n1ccc(-c2ccccc2)n1` (stereo not drawn) [Example 7, N-(4-(Methylamino)-3,4-dioxo-1-phenylbutan-2-yl)-2-(3-phenyl-1H-pyrazol-1-yl)nicotinamide, reference compound], the pKi was 6.40 to 6.60.

With `O=C(NC1CC1)C(=O)C(Cc1ccc(OCCN2CCOCC2)cc1)NC(=O)c1cccnc1-n1ccc(-c2ccccc2)n1` (stereo not drawn) [Example 23, N-[4-(Cyclopropylamino)-1-{4-[2-(4-morpholinyl)ethoxy]phenyl}-3,4-dioxo-2-butanyl]-2-(3-phenyl-1H-pyrazol-1-yl)nicotinamide], the pKi is 6.10 to 6.40.

As to `O=C(NC1CC1)C(=O)C(Cc1cccc(F)c1)NC(=O)c1cccnc1-n1ccc(-c2ccccc2)n1` (stereo not drawn) [Example 14, N-(4-(Cyclopropylamino)-1-(3-fluorophenyl)-3,4-dioxobutan-2-yl)-2-(3-phenyl-1H-pyrazol-1-yl)nicotinamide], the pKi is 6.40 to 6.60.

Regarding `O=C(NCc1ccccc1)C(=O)C(Cc1ccccc1)NC(=O)c1cccnc1-n1ccc(-c2ccccc2)n1` (stereo not drawn) [Example 16, N-(4-(Benzylamino)-3,4-dioxo-1-phenylbutan-2-yl)-2-(3-phenyl-1H-pyrazol-1-yl)nicotinamide], the pKi was more than 6.60.

With `O=C(NCc1ccccn1)C(=O)C(Cc1ccccc1)NC(=O)c1cccnc1-n1ccc(-c2ccccc2)n1` (stereo not drawn) [Example 8, N-[4-(Pyridin-2-ylmethylamino)-3,4-dioxo-1-phenylbutan-2-yl]-2-(3-phenyl-1H-pyrazol-1-yl)pyridine-3-carboxamide], the pKi is more than 6.60.

For `O=C(NC1CC1)C(=O)C(Cc1ccc(CN2CCOCC2)cc1)NC(=O)c1cccnc1-n1ccc(-c2ccccc2)n1` (stereo not drawn) [Example 25, N-{4-(Cyclopropylamino)-1-[4-(4-morpholinylmethyl)phenyl]-3,4-dioxo-2-butanyl}-2-(3-phenyl-1H-pyrazol-1-yl)nicotinamide], the pKi is 6.10 to 6.40.

In the case of `O=C(NC1CC1)C(=O)C(Cc1ccccc1)NC(=O)c1cccnc1-n1cc(F)c(-c2ccccc2)n1` (stereo not drawn) [Example 12, N-(4-(Cyclopropylamino)-3,4-dioxo-1-phenylbutan-2-yl)-2-(4-fluoro-3-phenyl-1H-pyrazol-1-yl)nicotinamide], the pKi was 6.10 to 6.40.

With `O=C(NC1CC1)C(=O)C(Cc1ccccc1)NC(=O)c1cccnc1-n1ccc(-c2ccc(F)cc2)n1` (stereo not drawn) [Example 19, N-[4-(Cyclopropylamino)-3,4-dioxo-1-phenyl-2-butanyl]-2-[3-(4-fluorophenyl)-1H-pyrazol-1-yl]nicotinamide], the pKi is 6.00 to 6.10.

For `NC(=O)C(=O)C(Cc1ccccc1)NC(=O)c1cccnc1-n1ccc(-c2ccc(F)cc2)n1` (stereo not drawn) [Example 18, N-(3-Amino-1-benzyl-2,3-dioxopropyl)-2-[3-(4-fluorophenyl)-1H-pyrazol-1-yl]nicotinamide, reference compound], the pKi was more than 6.60.

Regarding `C=CCNC(=O)C(=O)C(Cc1ccccc1)NC(=O)c1cccnc1-n1ccc(-c2ccccc2)n1` (stereo not drawn) [Example 6, N-[3,4-Dioxo-1-phenyl-4-(prop-2-en-1-ylamino)butan-2-yl]-2-(3-phenyl-1H-pyrazol-1-yl)pyridine-3-carboxamide], the pKi was 6.10 to 6.40.

Regarding `O=C(NCC1CC1)C(=O)C(Cc1ccccc1)NC(=O)c1cccnc1-n1ccc(-c2ccccc2)n1` (stereo not drawn) [Example 9, N-(4-(Cyclopropylmethylamino)-3,4-dioxo-1-phenylbutan-2-yl)-2-(3-phenyl-1H-pyrazol-1-yl)nicotinamide], the pKi is 6.10 to 6.40.

For `CCCNC(=O)C(=O)C(Cc1ccccc1)NC(=O)c1cccnc1-n1ccc(-c2ccccc2)n1` (stereo not drawn) [Example 11, N-(3,4-Dioxo-1-phenyl-4-(propylamino)butan-2-yl)-2-(3-phenyl-1H-pyrazol-1-yl)nicotinamide], the pKi was 6.10 to 6.40.

`O=C(NCCc1ccccc1)C(=O)C(Cc1ccccc1)NC(=O)c1cccnc1-n1ccc(-c2ccccc2)n1` (stereo not drawn) [Example 17, N-(3,4-Dioxo-4-(phenethylamino)-1-phenylbutan-2-yl)-2-(3-phenyl-1H-pyrazol-1-yl)nicotinamide]: the pKi was 6.40 to 6.60.

For `O=C(NC1CC1)C(=O)C(Cc1ccc(F)cc1)NC(=O)c1cccnc1-n1ccc(-c2ccccc2)n1` (stereo not drawn) [Example 13, N-(4-(Cyclopropylamino)-1-(4-fluorophenyl)-3,4-dioxobutan-2-yl)-2-(3-phenyl-1H-pyrazol-1-yl)nicotinamide], the pKi was 6.10 to 6.40.

`O=C(NCCCc1ccccn1)C(=O)C(Cc1ccccc1)NC(=O)c1cccnc1-n1ccc(-c2ccc(F)cc2)n1` (stereo not drawn) [Example 4, N-(3,4-Dioxo-1-phenyl-4-{[3-(pyridin-2-yl)propyl]amino}butan-2-yl)-2-[3-(4-fluorophenyl)-1H-pyrazol-1-yl]pyridine-3-carboxamide]: the pKi is more than 6.60.

On to `O=C(NCc1ccccn1)C(=O)C(Cc1ccccc1)NC(=O)c1cccnc1-n1ccc(-c2ccc(F)cc2)n1` (stereo not drawn) [Example 2, N-{3,4-Dioxo-1-phenyl-4-[(pyridin-2-ylmethyl)amino]butan-2-yl}-2-[3-(4-fluorophenyl)-1H-pyrazol-1-yl]pyridine-3-carboxamide], for which the pKi was 6.40 to 6.60.

Turning to `O=C(NC1CC1)C(=O)C(Cc1ccccc1)NC(=O)c1cccnc1-n1ccc(-c2ccccc2)n1` (stereo not drawn) [Example 5, N-[4-(Cyclopropylamino)-3,4-dioxo-1-phenylbutan-2-yl]-2-(3-phenyl-1H-pyrazol-1-yl)pyridine-3-carboxamide], the pKi was more than 6.60.

For `O=C(NCc1ncco1)C(=O)C(Cc1ccccc1)NC(=O)c1cccnc1-n1ccc(-c2ccccc2)n1` (stereo not drawn) [Example 24, N-{4-[(1,3-Oxazol-2-ylmethyl)amino]-3,4-dioxo-1-phenyl-2-butanyl}-2-(3-phenyl-1H-pyrazol-1-yl)nicotinamide], the pKi was 6.40 to 6.60.

Turning to `COC(=O)CNC(=O)C(=O)C(Cc1ccccc1)NC(=O)c1cccnc1-n1ccc(-c2ccccc2)n1` (stereo not drawn) [Example 21, Methyl N-[2-oxo-4-phenyl-3-({[2-(3-phenyl-1H-pyrazol-1-yl)-3-pyridinyl]carbonyl}amino)butanoyl]glycinat], the negative-log Ki (pKi) was more than 6.60.

Consider `O=C(NCc1nc2ccccc2o1)C(=O)C(Cc1ccccc1)NC(=O)c1cccnc1-n1ccc(-c2ccccc2)n1` (stereo not drawn) [Example 15, N-{4-[(1,3-Benzoxazol-2-ylmethyl)amino]-3,4-dioxo-1-phenylbutan-2-yl}-2-(3-phenyl-1H-pyrazol-1-yl)pyridine-3-carboxamide], for which the pKi is more than 6.60.

The target of another test is T2, cathepsin L (Homo sapiens, UniProt P07711).
T2 construct: cathepsin L—isolated from human liver; purchased Calbiochem 219402; host or cells: human liver (natural source)
T2 sequence (P07711 114-333): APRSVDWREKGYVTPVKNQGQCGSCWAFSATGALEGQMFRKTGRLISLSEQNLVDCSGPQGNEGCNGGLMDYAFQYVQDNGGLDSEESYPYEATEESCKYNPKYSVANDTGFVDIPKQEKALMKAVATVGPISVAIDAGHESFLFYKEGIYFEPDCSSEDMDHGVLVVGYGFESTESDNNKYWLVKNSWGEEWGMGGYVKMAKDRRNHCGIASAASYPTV
Description: Cathepsin L kinetic fluorescence enzyme inhibition assay. It is filed as biochemical. To be noted: selectivity ratio versus calpain.
Description: 1 nM cathepsin L—isolated from human liver (Calbiochem #219402), 2 μM Z-Phe-Arg-AMC (Bachem #I-1160) as substrate in 50 mM MES, 2 mM EDTA, 0.05% Brij 35, 2.5 mM L-cysteine, pH 6.0, room temperature.
On to `O=C(NC1CC1)C(=O)C(Cc1ccc(OCCN2CCOCC2)cc1)NC(=O)c1cccnc1-n1ccc(-c2ccccc2)n1` (stereo not drawn) [Example 23, N-[4-(Cyclopropylamino)-1-{4-[2-(4-morpholinyl)ethoxy]phenyl}-3,4-dioxo-2-butanyl]-2-(3-phenyl-1H-pyrazol-1-yl)nicotinamide], for which the “Sel cat. L (Ki(cathepsin L)/Ki(calpain) ratio)” value is “++ (10<Ki(cathepsin L)/Ki(calpain)≦50)”.

The target of another test is T3, cathepsin S (Homo sapiens, UniProt P25774).
T3 construct: purchased Calbiochem 219343; host or cells: E. coli
T3 sequence (P25774 115-331): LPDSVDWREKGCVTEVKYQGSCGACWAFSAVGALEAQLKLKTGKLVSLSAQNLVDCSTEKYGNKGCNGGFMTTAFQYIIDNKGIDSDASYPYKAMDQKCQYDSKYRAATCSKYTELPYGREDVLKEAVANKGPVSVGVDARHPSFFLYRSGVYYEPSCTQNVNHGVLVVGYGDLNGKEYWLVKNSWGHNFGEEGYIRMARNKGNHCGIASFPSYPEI
Put plainly: Cathepsin S kinetic fluorescence enzyme inhibition assay. Format: biochemical. The note with it: selectivity ratio versus calpain.
Description: 0.5 nM recombinant human cathepsin S from E. coli (Calbiochem #219343), 20 μM Z-Val-Val-Arg-AMC (Bachem #I-1540) as substrate in 50 mM MES, 2 mM EDTA, 0.05% Brij 35, 2.5 mM L-cysteine, pH 6.0, room temperature.
With `O=C(NC1CC1)C(=O)C(Cc1ccc(OCCN2CCOCC2)cc1)NC(=O)c1cccnc1-n1ccc(-c2ccccc2)n1` (stereo not drawn) [Example 23, N-[4-(Cyclopropylamino)-1-{4-[2-(4-morpholinyl)ethoxy]phenyl}-3,4-dioxo-2-butanyl]-2-(3-phenyl-1H-pyrazol-1-yl)nicotinamide], the “Sel cat. S (Ki(cathepsin S)/Ki(calpain) ratio)” value is listed as “++ (10<Ki(cathepsin S)/Ki(calpain)≦50)”.

For `O=C(NC1CC1)C(=O)C(Cc1ccc(CN2CCOCC2)cc1)NC(=O)c1cccnc1-n1ccc(-c2ccccc2)n1` (stereo not drawn) [Example 25, N-{4-(Cyclopropylamino)-1-[4-(4-morpholinylmethyl)phenyl]-3,4-dioxo-2-butanyl}-2-(3-phenyl-1H-pyrazol-1-yl)nicotinamide], the “Sel cat. S (Ki(cathepsin S)/Ki(calpain) ratio)” value was “++ (10<Ki(cathepsin S)/Ki(calpain)≦50)”.
